In patent US4347319A, “Microbiological epoxidation process” (priority 1980, dated 1982):

Tests used:
[1] = system: Methylobacter chroococcum CRL M6 NRRL B-11,214; assay: Sec. alcohol oxidation by cell suspensions of methanol-grown cells; type: cell-based; conditions: sec. alcohol to methyl ketone
Text: (§1) In this example, the procedure of Example 1 was repeated except that a plurality of the methane-utilizing methylotrophic microorganisms of the invention were each aerobically grown in a methanol-containing nutrient medium instead of a methane-containing medium. The nutrients in the medium were the same as indicated in Example 1 except that 0.4% v/v methanol was used as the alcohol dehydrogenase enzyme inducer and major source of carbon and energy for growth. Following growth the cells were harvested and washed as described in Example 1. The resting cells of the induced methanol-grown methylotrophic microorganisms were then contacted with a […] under aerobic conditions in a buffered solution by the procedure described in Example 1.

[2] = system: Methylobacter vinelandii CRL M5Y NRRL B-11,218; assay: as above; type: cell-based; conditions: sec. alcohol to methyl ketone
Text: as §1

[3] = system: Methylobacterium organophilum CRL 26 NRRL B-11,222; assay: as above; type: cell-based; conditions: sec. alcohol to methyl ketone
Text: as §1

[4] = system: Methylococcus capsulatus CRL M1 NRRL B-11,219; assay: as above; type: cell-based; conditions: sec. alcohol to methyl ketone
Text: as §1

[5] = system: Methylocystis parvus CRL 18 NRRL B-11,204; assay: as above; type: cell-based; conditions: sec. alcohol to methyl ketone
Text: as §1

[6] = system: Methylomonas methanica CRL M4P NRRL B-11,205; assay: as above; type: cell-based; conditions: sec. alcohol to methyl ketone
Text: as §1

[7] = system: Methylosinus trichosporium CRL 15 NRRL B-11,202; assay: as above; type: cell-based; conditions: sec. alcohol to methyl ketone
Text: as §1

[8] = system: Candida utilis ATCC 26387; assay: Oxidation of sec-alcohols to ketones by cell suspensions of yeasts; type: cell-based; conditions: sec-alcohol to methyl ketone
[9] = system: Hansenula polymorpha ATCC 26012; assay: as above; type: cell-based; conditions: sec-alcohol to methyl ketone
Pichia sp. NRRL-Y-11328 = assay: as above; type: cell-based; conditions: sec-alcohol to methyl ketone
[10] = system: Torulopsis sp. Strain A1 (NRRLY-11,419); assay: as above; type: cell-based; conditions: sec-alcohol to methyl ketone
[11] = system: Kloeckera sp. Strain A2 (NRRLY-11,420); assay: as above; type: cell-based; conditions: sec-alcohol to methyl ketone
[12] = system: cell extract of Candida utilis ATCC 26,387; assay: Oxidation of secondary alcohols to methylketone by cell extracts of yeasts; type: biochemical; conditions: methanol-grown; cell extract + NAD^+; sec. alcohol to methyl ketone; gas chromatography
[13] = system: cell extract of Hansenula polymorpha ATCC 26,012; assay: as above; type: biochemical; conditions: methanol-grown; cell extract + NAD^+; sec. alcohol to methyl ketone; gas chromatography
[14] = system: cell extract of Pichia sp. NRRL-Y-11,328; assay: as above; type: biochemical; conditions: methanol-grown; cell extract + NAD^+; sec. alcohol to methyl ketone; gas chromatography
[15] = system: cell extract of Torulopsis sp. strain A1 NRRL-Y-11,419; assay: as above; type: biochemical; conditions: methanol-grown; cell extract + NAD^+; sec. alcohol to methyl ketone; gas chromatography
[16] = system: cell extract of Kloeckera sp. strain A2 NRRL-Y-11,420; assay: as above; type: biochemical; conditions: methanol-grown; cell extract + NAD^+; sec. alcohol to methyl ketone; gas chromatography
[17] = system: purified secondary alcohol dehydrogenase from Pichia sp. NRRL Y-11,328; assay: Substrate specificity, electron acceptor and stoichiometry of purified yeast SADH; type: biochemical; conditions: examined spectrophotometrically

oxidation by the purified enzyme [17]: catalyzed the oxidation
Structure (SMILES): CCCCC(C)O (centres unmarked) [2-Hexanol]
Conversion Rates [1]: 0.02 μmoles/hr/mg protein | Conversion Rates [2]: 0.02 μmoles/hr/mg protein | Conversion Rates [3]: 0.09 μmoles/hr/mg protein | Conversion Rates [4]: 0.08 μmoles/hr/mg protein | Conversion Rates [5]: 0.05 μmoles/hr/mg protein | Conversion Rates [6]: 0.03 μmoles/hr/mg protein | Conversion Rates [7]: 0.06 μmoles/hr/mg protein | Conversion Rate ([8]; growth substrate Ethanol): 0.72 μmoles/hr/mg of protein | Conversion Rate ([8]; growth substrate Methanol): 0.8 μmoles/hr/mg of protein | Conversion Rate ([8]; growth substrate Methylamine): 0.61 μmoles/hr/mg of protein | Conversion Rate ([8]; growth substrate Methylformate): 0.75 μmoles/hr/mg of protein | Conversion Rate ([8]; growth substrate Propylamine): 0.52 μmoles/hr/mg of protein | Conversion Rate ([9]; growth substrate Ethanol): 0.54 μmoles/hr/mg of protein | Conversion Rate ([9]; growth substrate Methanol): 0.72 μmoles/hr/mg of protein | Conversion Rate ([9]; growth substrate Methylamine): 0.62 μmoles/hr/mg of protein | Conversion Rate ([9]; growth substrate Methylformate): 0.70 μmoles/hr/mg of protein | Conversion Rate ([9]; growth substrate Propylamine): 0.48 μmoles/hr/mg of protein | Conversion Rate (Pichia sp. NRRL-Y-11328; growth substrate Ethanol): 0.28 μmoles/hr/mg of protein | Conversion Rate (Pichia sp. NRRL-Y-11328; growth substrate Methanol): 0.50 μmoles/hr/mg of protein | Conversion Rate (Pichia sp. NRRL-Y-11328; growth substrate Methylamine): 0.31 μmoles/hr/mg of protein | Conversion Rate (Pichia sp. NRRL-Y-11328; growth substrate Methylformate): 0.48 μmoles/hr/mg of protein | Conversion Rate (Pichia sp. NRRL-Y-11328; growth substrate Propylamine): 0.21 μmoles/hr/mg of protein | Conversion Rate ([10]; growth substrate Ethanol): 0.20 μmoles/hr/mg of protein | Conversion Rate ([10]; growth substrate Methanol): 0.21 μmoles/hr/mg of protein | Conversion Rate ([10]; growth substrate Methylamine): 0.12 μmoles/hr/mg of protein | Conversion Rate ([10]; growth substrate Methylformate): 0.25 μmoles/hr/mg of protein | Conversion Rate ([10]; growth substrate Propylamine): 0.10 μmoles/hr/mg of protein | Conversion Rate ([11]; growth substrate Ethanol): 0.12 μmoles/hr/mg of protein | Conversion Rate ([11]; growth substrate Methanol): 0.25 μmoles/hr/mg of protein | Conversion Rate ([11]; growth substrate Methylamine): 0.10 μmoles/hr/mg of protein | Conversion Rate ([11]; growth substrate Methylformate): 0.28 μmoles/hr/mg of protein | Conversion Rate ([11]; growth substrate Propylamine): 0.11 μmoles/hr/mg of protein | Conversion Rate [12]: 0.45 μmoles/hr/mg Protein | Conversion Rate [13]: 0.51 μmoles/hr/mg Protein | Conversion Rate [14]: 0.60 μmoles/hr/mg Protein | Conversion Rate [15]: 0.21 μmoles/hr/mg Protein | Conversion Rate [16]: 0.25 μmoles/hr/mg Protein
